The record followed here is patent publication US20150196033A1, “PESTICIDAL COMPOSITIONS AND PROCESSES RELATED THERETO” (priority 2012, published 2015).

Common to all, as to format: in vivo
Data set [1] deals with Beet Armyworm (BAW) (Spodoptera exigua). The data set can be described thus: Bioassay on Beet Armyworm (BAW), 128-well diet tray assay. Conditions: 50 μg/cm2 on artificial diet, second instar larvae, five to seven days; for mortality at 50 µg/cm2: Spodoptera exigua, 168 h, read-out: Rating BAW (% Control (or Mortality)). In short, it runs like this: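 Spodoptera exigua larvae on diet trays held 5–7 days at 25 °C, 14:10 light-dark. Percent mortality scored per well and averaged over eight wells.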

The subject of data set [2] is Corn Earworm (CEW) (Helicoverpa zea). The data set can be described thus: Bioassay on Corn Earworm (CEW), 128-well diet tray assay. Conditions: second instar larvae, five to seven days; for mortality at 0.5 µg/cm2 / mortality at 50 µg/cm2: Helicoverpa zea, 168 h; for mortality at 0.5 µg/cm2: 0.5 μg/cm2 on artificial diet, read-out: Rating CEW (% Control (or Mortality)), *Tested at 0.5 μg/cm2; for mortality at 50 µg/cm2: read-out: Rating CEW (% Control (or Mortality)). Put shortly: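 Helicoverpa zea larvae in 128-well diet trays, held at 25 °C, 14:10 light-dark for five to seven days. Percent mortality scored per well and averaged over eight wells.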

The test system of data set [3] is Yellow Fever Mosquito (YFM) (Aedes aegypti). Conditions: about 1 day-old larvae, scored on mortality after 3 days. Here is the method: Certain molecules disclosed in this document were tested against YFM using procedures described in the following paragraph. In the reporting of the results, the “YFM Rating Table” was used (See Table Section).
Master plates containing 400 μg of a molecule dissolved in 100 μL of dimethyl sulfoxide (DMSO) (equivalent to a 4000 ppm solution) are used. A master plate of assembled molecules contains 15 μL per well. To this plate, 135 μL of a 90:10 water:acetone mixture is added to each well. A robot (Biomek® NXP Laboratory Automation Workstation) is programmed to dispense 15 μL aspirations from the master plate into an empty 96-well shallow plate (“daughter” plate). There are 6 reps (“daughter” plates) created per master. The created daughter plates are then immediately infested with YFM larvae.
The day before plates are to be treated, mosquito eggs are placed in Millipore water containing liver powder to begin hatching (4 g. into 400 ml). After the daughter plates are created using the robot, they are infested with 220 μL of the liver powder/larval mosquito mixture (about 1 day-old larvae). After plates are infested with mosquito larvae, a non-evaporative lid is used to cover the plate to reduce drying. Plates are held at room temperature for 3 days prior to grading. After 3 days, each well is observed and scored based on mortality.

In data set [4] the test system is Green Peach Aphid (GPA) (Myzus persicae). The data set can be described thus: Bioassay on Green Peach Aphid (GPA), foliar spray on cabbage seedlings. The conditions noted are these: 200 ppm foliar spray on cabbage seedlings, graded after three days, Abbott corrected % control; for mortality at 200 ppm: Myzus persicae, 72 h, read-out: Rating GPA (% Control (or Mortality)). The procedure:
Certain molecules disclosed in this document were tested against GPA using procedures described in the following example. In the reporting of the results, the “GPA Rating Table” was used (See Table Section).
Cabbage seedlings grown in 3-inch pots, with 2-3 small (3-5 cm) true leaves, were used as test substrate. The seedlings were infested with 20-50 GPA (wingless adult and nymph stages) one day prior to chemical application. Four pots with individual seedlings were used for each treatment. Test compounds (2 mg) were dissolved in 2 mL of acetone/MeOH (1:1) solvent, forming stock solutions of 1000 ppm test compound. The stock solutions were diluted 5× with 0.025% Tween 20 in H2O to obtain the solution at 200 ppm test compound. A hand-held aspirator-type sprayer was used for spraying a solution to both sides of […] leaves until runoff. Reference plants (solvent check) were sprayed with the diluent only containing 20% by volume of acetone/MeOH (1:1) solvent. Treated plants were held in a holding room for three days at approximately 25° C. and ambient relative humidity (RH) prior to grading. Evaluation was conducted by counting the number of live aphids per plant under a microscope. Percent Control was measured by using Abbott's correction formula (W.S. Abbott, “A Method of Computing the Effectiveness of an Insecticide” J. Econ. Entomol. 18 (1925), pp. 265-267) as follows.
Corrected % Control=100*(X−Y)/X • where • X=No. of live aphids on solvent check plants and • Y=No. of live aphids on treated plants

With `Cc1cc(-c2ncn(-c3ccc(OC(F)(F)F)cc3)n2)ccc1NC(=O)/N=C(\S)Nc1ccccc1C(C)C` [Molecule A122], the mortality at 50 µg/cm2 in data set [1] was in the range of 50 to 100%. In addition, the mortality at 0.5 µg/cm2 in data set [2] is 50 to 100%. Also, in data set [3], the “Rating YFM (% Control (or Mortality))” value is listed as “A (80-100)”.

With `CCc1ccccc1N/C(S)=N/C(=O)Nc1ccc(-c2ncn(-c3ccc(OC(F)(F)F)cc3)n2)cc1` [Molecule A46], the mortality at 50 µg/cm2 in data set [1] and in data set [2] (50 μg/cm2 on artificial diet) was 50 to 100% throughout. In data set [4], the mortality at 200 ppm was in the range of 0 to 80%. Besides, the “Rating YFM (% Control (or Mortality))” value in data set [3] is listed as “A (80-100)”.

Take `Cc1ccccc1N1C(=O)CS/C1=N\C(=O)Nc1ccc(-c2ncn(-c3ccc(OC(F)(F)F)cc3)n2)cc1` [Molecule A65]: the mortality at 50 µg/cm2 in data set [1] fell in the range of 50 to 100%. Also, the mortality at 0.5 µg/cm2 in data set [2] was 50 to 100%. Also, in data set [3], the “Rating YFM (% Control (or Mortality))” value was “A (80-100)”.

For the compound `COc1ccc(N/C(=N\C(=O)Nc2ccc(-c3ncn(-c4ccc(OC(F)(F)F)cc4)n3)cc2)SCOC(=O)C(C)C)cc1` [Molecule A62], the mortality at 50 µg/cm2 in data set [1] and in data set [2] (50 μg/cm2 on artificial diet) was 50 to 100% throughout. Besides, the mortality at 200 ppm in data set [4] is 0%. The “Rating YFM (% Control (or Mortality))” value in data set [3] is reported as “A (80-100)”.

Regarding `Cc1cccc(C)c1N1C(=O)C(C)(C)S/C1=N\C(=O)Nc1ccc(-c2ncn(-c3ccc(OC(F)(F)F)cc3)n2)cc1` [Molecule A126], the mortality at 50 µg/cm2 in data set [1] and in data set [2] (50 μg/cm2 on artificial diet) was 50 to 100% in each case. In addition, in data set [4], the mortality at 200 ppm amounted to 0%. The “Rating YFM (% Control (or Mortality))” value in data set [3] was “A (80-100)”.

As to `CCCc1ccccc1N1C(=O)CS/C1=N\C(=O)Nc1ccc(-c2ncn(-c3ccc(OC(F)(F)F)cc3)n2)cc1` [Molecule A69], the mortality at 50 µg/cm2 in data set [1] fell in the range of 50 to 100%. Also, in data set [2], the mortality at 0.5 µg/cm2 was 50 to 100%. In addition, the “Rating YFM (% Control (or Mortality))” value in data set [3] is listed as “A (80-100)”.

For the compound `Cc1cc(-c2ncn(-c3ccc(OC(F)(F)F)cc3)n2)ccc1NC(=O)/N=C1\SCC(=O)N1c1ccccc1C(C)C` [Molecule A123, (Z)-1-(3-(2-isopropylphenyl)-4-oxothiazolidin-2-ylidene)-3-(2-methyl-4-(1-(4-(trifluoromethoxy)phenyl)-1H-1,2,4-triazol-3-yl)phenyl)urea], the mortality at 50 µg/cm2 in data set [1] lay within 50 to 100%. The mortality at 0.5 µg/cm2 in data set [2] was in the range of 50 to 100%. In addition, the “Rating YFM (% Control (or Mortality))” value in data set [3] was “A (80-100)”.

In the case of `CCC(C)c1ccccc1N1C(=O)CS/C1=N\C(=O)Nc1ccc(-c2ncn(-c3ccc(OC(F)(F)F)cc3)n2)cc1` (stereo not drawn) [Molecule A18, (Z)-1-(3-(2-(sec-butyl)phenyl)-4-oxothiazolidin-2-ylidene)-3-(4-(1-(4-(trifluoromethoxy)phenyl)-1H-1,2,4-triazol-3-yl)phenyl)urea], the mortality at 50 µg/cm2 in data set [1] and in data set [2] (50 μg/cm2 on artificial diet) was 50 to 100% each time. Further, the “Rating YFM (% Control (or Mortality))” value in data set [3] is recorded as “A (80-100)”.

Turning to `Cc1ccc(N2C(=O)CS/C2=N\C(=O)Nc2ccc(-c3ncn(-c4ccc(OC(F)(F)F)cc4)n3)cc2)c(Cl)c1` [Molecule A77], in data set [1], the mortality at 50 µg/cm2 lay within 50 to 100%. In addition, the mortality at 0.5 µg/cm2 in data set [2] lay in the range of 50 to 100%. Further, the “Rating YFM (% Control (or Mortality))” value in data set [3] was “B (More than 0-Less than 80)”.

For `Cc1ccccc1N/C(S)=N/C(=O)Nc1ccc(-c2ncn(-c3ccc(OC(F)(F)F)cc3)n2)cc1` [Molecule A80], the mortality at 50 µg/cm2 in data set [1] and in data set [2] (50 μg/cm2 on artificial diet) was 50 to 100% in each case. For the same compound, the “Rating YFM (% Control (or Mortality))” value in data set [3] is “B (More than 0-Less than 80)”.

For `COc1ccc(N/C(O)=C/C(=O)Nc2ccc(-c3ncn(-c4ccc(OC(F)(F)F)cc4)n3)cc2)c(C)c1` [Molecule A33, (Z)-3-hydroxy-3-(4-methoxy-2-methylphenylamino)-N-(4-(1-(4-(trifluoromethoxy)phenyl)-1H-1,2,4-triazol-3-yl)phenyl)acrylamide], the mortality at 50 µg/cm2 in data set [1] and in data set [2] (50 μg/cm2 on artificial diet) was 50 to 100% in each case. Besides, in data set [4], the mortality at 200 ppm lay within 0 to 80%.

As to `CC(C)c1cccc(Cl)c1N1C(=O)CS/C1=N\C(=O)Nc1ccc(-c2ncn(-c3ccc(OC(F)(F)F)cc3)n2)cc1` [Molecule A85], the mortality at 50 µg/cm2 in data set [1] is 50 to 100%. Further, the mortality at 0.5 µg/cm2 in data set [2] lay in the range of 50 to 100%. The “Rating YFM (% Control (or Mortality))” value in data set [3] is “A (80-100)”.

For the compound `Cc1cccc(C)c1N/C(S)=C(\C#N)C(=O)Nc1ccc(-c2ncn(-c3ccc(OC(F)(F)F)cc3)n2)cc1` [Molecule A28, (Z)-2-Cyano-3-mercapto-3-((2,6-dimethylphenyl)amino)-N-(4-(1-(4-(trifluoromethoxy)phenyl)-1H-1,2,4-triazol-3-yl)phenyl)acrylamide], the mortality at 50 µg/cm2 in data set [1] is 0%; in data set [2] (50 μg/cm2 on artificial diet) it was 50 to 100%. The “Rating YFM (% Control (or Mortality))” value in data set [3] is reported as “D (No activity noticed in this bioassay)”.

As for `COc1cc(C)c(N/C(=N/C(=O)Nc2ccc(-c3ncn(-c4ccc(OC(F)(F)F)cc4)n3)cc2)SCOC(=O)C(C)C)c(C)c1` [Molecule A7, (E)-(N′-(2,6-Dimethyl-4-methoxyphenyl)-N-(4-(1-(4-(trifluoromethyoxy)phenyl)-1H-1,2,4-triazol-3-yl)phenylcarbamoyl)carbamimidoylthio)methyl isobutyrate], the mortality at 50 µg/cm2 in data set [1] and in data set [2] (50 μg/cm2 on artificial diet) was 50 to 100% in each case. Also, the mortality at 200 ppm in data set [4] was in the range of 0 to 80%.

As to `CC(C)C(=O)OCS/C(=N\C(=O)Nc1ccc(-c2ncn(-c3ccc(OC(F)(F)C(F)(F)F)cc3)n2)cc1)Nc1ccccc1C(C)C` [Molecule A6, (Z)-((N-(2-Isopropylphenyl)-N′-((4-(1-(4-(pentafluoroethoxy)phenyl)-1H-1,2,4-triazol-3-yl)phenyl)carbamoyl)carbamimidoyl)thio)methyl isobutyrate], the mortality at 50 µg/cm2 in data set [1] and in data set [2] (50 μg/cm2 on artificial diet) was 50 to 100% in each case. For the same compound, the mortality at 200 ppm in data set [4] amounted to 0%.

In the case of `COc1ccc(N/C(=N/C(=O)Nc2ccc(-c3ncn(-c4ccc(C(F)(F)F)cc4)n3)cc2)SC)c(C)c1` [Molecule A2, (Z)-Methyl N-(4-methoxy-2-methylphenyl)-N′-((4-(1-(4-(trifluoromethyl)phenyl)-1H-1,2,4-triazol-3-yl)phenyl)carbamoyl)carbamimidothioate], the mortality at 50 µg/cm2 in data set [1] and in data set [2] (50 μg/cm2 on artificial diet) was 50 to 100% each time. In addition, the mortality at 200 ppm in data set [4] amounted to 0%.

As for “(E)-((N′-(4-Methoxy-2,6-dimethylphenyl)-N-((4-(1-(4-(trifluoromethyl)phenyl)-1H-1,2,4-triazol-3-yl)phenyl)carbamoyl) carbamimidoyl)thio)methyl 2-(((benzyloxy)carbonyl)amino)acetate [Molecule A9]”, in data set [1], the “Rating BAW (% Control (or Mortality))” value is on record as “A (50-100)”. For the same compound, in data set [4], the “Rating GPA (% Control (or Mortality))” value is given as “B (More than 0-Less than 80)”. For the same compound, the “Rating CEW (% Control (or Mortality))” value in data set [2] (50 μg/cm2 on artificial diet) is recorded as “A (50-100)”.

In the case of `COc1ccc(N/C(=N/C(=O)Nc2ccc(-c3ncn(-c4ccc(C(F)(F)F)cc4)n3)cc2)SCOC(=O)C(C)C)c(C)c1` [Molecule A1, (E)-((N′-(4-methoxy-2-methylphenyl)-N-((4-(1-(4-(trifluoromethyl)phenyl)-1H-1,2,4-triazol-3-yl)phenyl)carbamoyl)carbamimidoyl)thio) methyl isobutyrate], the mortality at 50 µg/cm2 in data set [1] and in data set [2] (50 μg/cm2 on artificial diet) was 50 to 100% throughout. The mortality at 200 ppm in data set [4] came out at 0%.
